Laboratory results taken from the CheMixHub ionic liquid set.

Assay: xn = mol fraction of the nth substance listed

CC(=O)[O-].CCCCC[N+](CCCCC)(CCCCC)CCCCC + CCCCCCCCCCCC[N+](C)(C)C.[Br-] + O
viscosity [mPa·s], 100 kPa
Details | x2 = 5.424e-05, x1 = 0.0001802 | x2 = 0.0001085, x1 = 0.0001801 | x2 = 0.0001627, x1 = 0.0001801 | x2 = 0.0002169, x1 = 0.0001801 | x2 = 0.0002711, x1 = 0.0001801 | x2 = 0.0003254, x1 = 0.0001801 | x2 = 0.0003796, x1 = 0.0001801 | x2 = 0.0004338, x1 = 0.0001801 | x2 = 0.000488, x1 = 0.0001801 | x2 = 0.0005421, x1 = 0.0001801
293.15 K | 1.029 | 1.031 | 1.033 | 1.034 | 1.034 | 1.035 | 1.035 | 1.036 | 1.036 | 1.036
298.15 K | 0.921 | 0.924 | 0.928 | 0.928 | 0.929 | 0.929 | 0.93 | 0.93 | 0.931 | 0.931
303.15 K | 0.811 | 0.813 | 0.816 | 0.819 | 0.822 | 0.825 | 0.825 | 0.828 | 0.829 | 0.83
308.15 K | 0.728 | 0.731 | 0.731 | 0.733 | 0.734 | 0.737 | 0.741 | 0.745 | 0.746 | 0.749
313.15 K | 0.659 | 0.661 | 0.664 | 0.666 | 0.667 | 0.669 | 0.669 | 0.67 | 0.671 | 0.671
318.15 K | 0.609 | 0.609 | 0.611 | 0.612 | 0.613 | 0.615 | 0.615 | 0.619 | 0.62 | 0.621

O=P([O-])(O)O.[Na+] + CCCCCCCCCCCC[N+](C)(C)C.[Br-] + O
298.15 K, 101 kPa
Details | electrical conductivity [S/m]
x2 = 0, x1 = 0.0001802 | 0.1015
x2 = 0, x1 = 0.001799 | 0.7566
x2 = 3.79e-06, x1 = 0.0001802 | 0.1031
x2 = 5.64e-06, x1 = 0.001799 | 0.7559
x2 = 7.76e-06, x1 = 0.0001802 | 0.1049
x2 = 1.11e-05, x1 = 0.001799 | 0.7567
x2 = 1.317e-05, x1 = 0.0001802 | 0.1075
x2 = 1.858e-05, x1 = 0.0001802 | 0.1101
x2 = 1.893e-05, x1 = 0.001799 | 0.7581
x2 = 2.345e-05, x1 = 0.0001802 | 0.1124
x2 = 2.603e-05, x1 = 0.001799 | 0.7597
x2 = 3.427e-05, x1 = 0.0001802 | 0.1175
x2 = 3.55e-05, x1 = 0.001799 | 0.7617
x2 = 4.401e-05, x1 = 0.0001802 | 0.1222
x2 = 4.714e-05, x1 = 0.001799 | 0.7635
x2 = 5.411e-05, x1 = 0.0001802 | 0.127
x2 = 5.843e-05, x1 = 0.001799 | 0.766
x2 = 6.457e-05, x1 = 0.0001802 | 0.132
x2 = 6.953e-05, x1 = 0.001799 | 0.7685
x2 = 7.467e-05, x1 = 0.0001801 | 0.1368
x2 = 8.082e-05, x1 = 0.001799 | 0.771
x2 = 8.477e-05, x1 = 0.0001801 | 0.1416
x2 = 9.228e-05, x1 = 0.001799 | 0.7738
x2 = 9.541e-05, x1 = 0.0001801 | 0.1467
x2 = 0.0001034, x1 = 0.001799 | 0.777
x2 = 0.0001055, x1 = 0.0001801 | 0.1516
x2 = 0.0001145, x1 = 0.001799 | 0.7803
x2 = 0.0001154, x1 = 0.0001801 | 0.1563
x2 = 0.0001255, x1 = 0.0001801 | 0.161
x2 = 0.0001258, x1 = 0.001799 | 0.7836
x2 = 0.0001363, x1 = 0.001799 | 0.7867
x2 = 0.0001371, x1 = 0.0001801 | 0.1667
x2 = 0.0001469, x1 = 0.001798 | 0.7899
x2 = 0.0001488, x1 = 0.0001801 | 0.1723
x2 = 0.0001578, x1 = 0.001798 | 0.793
x2 = 0.0001602, x1 = 0.0001801 | 0.1777
x2 = 0.0001687, x1 = 0.001798 | 0.7962
x2 = 0.0001715, x1 = 0.0001801 | 0.1831
x2 = 0.0001796, x1 = 0.001798 | 0.7996
x2 = 0.0001829, x1 = 0.0001801 | 0.1884
x2 = 0.0001905, x1 = 0.001798 | 0.8028
x2 = 0.0001941, x1 = 0.0001801 | 0.1937
x2 = 0.0002011, x1 = 0.001798 | 0.8057
x2 = 0.0002054, x1 = 0.0001801 | 0.1991
x2 = 0.0002117, x1 = 0.001798 | 0.8081
x2 = 0.0002166, x1 = 0.0001801 | 0.2043
x2 = 0.0002224, x1 = 0.001798 | 0.8103
x2 = 0.0002276, x1 = 0.0001801 | 0.2096
x2 = 0.0002326, x1 = 0.001798 | 0.8125
x2 = 0.0002384, x1 = 0.0001801 | 0.2146
x2 = 0.0002431, x1 = 0.001798 | 0.8147
x2 = 0.0002492, x1 = 0.0001801 | 0.2196
x2 = 0.0002537, x1 = 0.001798 | 0.8169
x2 = 0.0002601, x1 = 0.0001801 | 0.2239
x2 = 0.0002641, x1 = 0.001798 | 0.8191
x2 = 0.0002692, x1 = 0.0001801 | 0.2266
x2 = 0.0002744, x1 = 0.001798 | 0.8212
x2 = 0.0002795, x1 = 0.0001801 | 0.2291
x2 = 0.0002848, x1 = 0.001798 | 0.8234
x2 = 0.0002918, x1 = 0.0001801 | 0.2316
x2 = 0.0003062, x1 = 0.0001801 | 0.234
x2 = 0.0003222, x1 = 0.0001801 | 0.2367
x2 = 0.0003394, x1 = 0.0001801 | 0.2394
x2 = 0.000366, x1 = 0.0001801 | 0.2432
x2 = 0.0003922, x1 = 0.0001801 | 0.2467

CC[n+]1ccn(C)c1.O=S(=O)([N-]S(=O)(=O)C(F)(F)F)C(F)(F)F + CCCCCCCCCCCC[n+]1ccn(C)c1.O=S(=O)([N-]S(=O)(=O)C(F)(F)F)C(F)(F)F
100 kPa, x2 = 0
Details | viscosity [mPa·s]
293 K | 36
313 K | 18

c1ccccc1 + CCCCCCCC[n+]1ccc2ccccc2c1.O=S(=O)([N-]S(=O)(=O)C(F)(F)F)C(F)(F)F
101 kPa, x1 = 1
Details | viscosity [mPa·s]
308.15 K | 0.53
328.15 K | 0.42

CO/N=C(\C(=O)N[C@@H]1C(=O)N2C(C(=O)[O-])=C(CSc3nc(=O)c(=O)[n-]n3C)CS[C@H]12)c1csc(N)n1.[Na+].[Na+] + CCCCCCCC[n+]1ccc(C)cc1.[Br-] + O
viscosity [mPa·s], 100 kPa
Details | x1 = 0.0003495, x2 = 0 | x1 = 0.0008732, x2 = 0 | x1 = 0.001391, x2 = 0 | x1 = 0.002502, x2 = 0 | x1 = 0.00312, x2 = 0 | x1 = 0.003888, x2 = 0 | x1 = 0.004767, x2 = 0 | x1 = 0.005484, x2 = 0
288.15 K | 1.196 | 1.273 | 1.365 | 1.604 | 1.745 | 1.964 | 2.205 | 2.45
293.15 K | 1.053 | 1.12 | 1.2 | 1.399 | 1.527 | 1.701 | 1.918 | 2.122
298.15 K | 0.935 | 0.994 | 1.062 | 1.231 | 1.348 | 1.495 | 1.674 | 1.858
303.15 K | 0.829 | 0.885 | 0.945 | 1.1 | 1.195 | 1.323 | 1.48 | 1.638
308.15 K | 0.744 | 0.794 | 0.849 | 0.982 | 1.07 | 1.184 | 1.322 | 1.455

CO + CCCCCCCCn1cc[n+](C)c1.[Cl-]
Details | viscosity [mPa·s]
313.15 K, 101 kPa, x1 = 1 | 0.444
